Measurements taken from US9018235B2, “Insecticide compositions” (priority 2004, dated 2015).
Like-named read-outs stand apart in the source and are kept apart here.

Legend:
Assay type in all cases: in vivo
[1] = tested on: Chilo suppressalis
Description: (§1) When the effect obtained by combination of two kinds of the active compounds exceeds the expected value E as calculated by the below-described equation of Colby et al., the synergistic effect is deemed to exist. E=X+Y−X·Y/100 [Equation 2] wherein • E=the death rate of larvae obtained when the active compounds A and B are used at the dose of m and n, respectively; • X=the death rate of larvae when the active compound A is used at the dose of m; • Y=the death rate of larvae when the active compound B is used at the dose of n.
A test compound was dissolved by adding acetone containing 5% of Tween 20 (tradename) at the rate of 0.1 ml per 1 mg of the test compound, and the insecticide solution prepared by diluting the solution with ion-exchange water to a predetermined concentration was drenched onto the surface of the soil for raising rice seedlings (5 to 6 seedlings/plant as planted in a paper pot) in the 2.5- to 3-leaf stage at the rate of 1 ml per plant. Two days later, the stalks about 2 cm higher above the soil surface were cut and placed in a test tube, into which 10 heads of 3-instar larvae of Chilo suppressalis were released. The test rube was kept in a breeding chamber controlled at a constant temperature (25° C.), and the number of living larvae was counted 4 to 5 days later. Death rate of larvae=(Number of larvae dead)/(Number of larvae tested)×100 [Equation 4]

[2] = tested on: Plutella xylostella; assay: Insecticidal effect against Plutella xylostella through plant-root soil drenching of cabbage (Test Example 4); conditions: single compound, plant-root drench, 2-instar larvae
Description: as §1
A test compound was dissolved by adding acetone containing 5% of Tween 20 (tradename) at the rate of 0.1 ml per 1 mg of the test compound, and the solution was diluted with ion-exchange water to a total volume of 3 ml. Each of the insecticide solutions prepared was drenched onto the surface of the plant root soil for a cabbage plant grown in a cell tray (with a soil capacity of 24 ml). Four days later, the above-ground part of the plant was cut and placed in a plastic cup, into which 10 heads of 2-instar larvae of Plutella xylostella were released. The cup was kept in a breeding chamber controlled at a constant temperature (25° C.), and the number of living larvae was counted 4 days later. Death rate of larvae=(Number of larvae dead)/(Number of larvae tested)×100 [Equation 5]

[3] = tested on: Spodoptera litura; assay: Insecticidal effect against Spodoptera litura by soaking treatment of soybean leaves (Test Example 1); conditions: single compound, 0.03 ppm; soybean leaf soaking; 3-instar larvae; 25° C.
Experimental: A test compound was dissolved by addition of acetone containing 5% of Tween 20 (tradename) at the rate of 0.1 ml per 1 mg of the test compound, and after the solution is diluted with aqueous 5,000-fold diluted DAIN solution to a predetermined concentration, soybean leaves after complete development of primary leaves were treated through soaking in the insecticide solution for several seconds. After the insecticide solution was dried, four primary leaves were cut off and placed in an ice-cream cup (with a capacity of 180 ml), in which 10 heads of 3-instra larvae of Spodoptera litura were released. The ice-cream cup was kept in a breeding room controlled at a constant temperature (25° C.), and the number of dead larvae was counted three days later. Death rate of larvae=(Number of larvae dead)/(Number of larvae tested)×100 [Equation 1]
as §1

[4] = tested on: Spodoptera litura; assay: Insecticidal effect against Spodoptera litura through soaking treatment of soybean roots (Test Example 2); conditions: single compound, soybean root soaking, 3-instar larvae
Description: as §1
A test compound was dissolved by adding acetone containing 5 of Tween 20 (tradename) at the rate of 0.1 ml per 1 mg of the test compound, and the insecticide solution prepared by diluting the solution with ion-exchange water to a predetermined concentration was charged into a light-shielded Erlenmeyer flask (100 ml), into which the root portion of a soybean plant in the stage of development of primary leaves was soaked after being washed with running water to remove soil. Five days after root soaking, two primary leaves were cut off and placed in an ice-cream cup (with a capacity of 180 ml), into which 10 heads of 3-instar larvae were released. The ice-cream cup was kept in a breeding room controlled at a constant temperature (25° C.), and 5 days later, the number of dead larvae was counted. Death rate of larvae=(Number of larvae dead)/(Number of larvae tested)×100 [Equation 3]

[5] = tested on: Plutella xylostella; assay: Insecticidal effect against Plutella xylostella through soaking treatment of cabbage leaf (Test Example 5); conditions: single compound, amount applied 0.0064 mg/plant (as headed), 2-instar larvae
Description: as §1
A test compound was dissolved by adding acetone containing 5% of Tween 20 (tradename) at the rate of 0.1 ml per 1 mg of the test compound, and the insecticide solution was prepared by diluting the solution with an aqueous 5.000-fold diluted DAIN solution to a predetermined concentration. A cabbage leaf was cut off at the site of petiole and soaked in the insecticide solution for several seconds. […] The cup was kept in a breeding room controlled at a constant temperature (25° C.), and the number of dead larvae was counted 4 days later. The death rate of larvae was calculated by the following equation, and the results were shown in Table 8: (Death rate of larvae=(Number of larvae dead)/(Number of larvae tested)×100 [Equation 6]

SMILES: CNC(=N[N+](=O)[O-])NCC1CCOC1 (racemic) [Dinotefuran, (RS)-1-methyl-2-nitro-3-(tetrahydro-3-furylmethyl)guanidine]
- Death rate, 5 days later, % ([1]; in vivo): 0%
- Death rate, 4 days later, % ([2]; 0.0016 mg/plant): 0%
- Death rate, 4 days later, % ([2]; 0.04 mg/plant): 10%

SMILES: CN/C(=N\[N+](=O)[O-])NCc1cnc(Cl)s1 [Clothianidin, (E)-1-(2-chloro-1,3-thiazol-5-ylmethyl)-3-methyl-2-nitroguanidine]
- Death rate, 3 days later, % [3]: 0%
- Death rate, 5 days later, % ([4]; 0.00032 ppm): 0%
- Death rate, 4 days later, % ([1]; single compound, 0.001 mg/plant, soil drench, rice, 3-instar larvae): 10%

SMILES: Cc1cccc(C(=O)NC(C)C)c1NC(=O)c1cc(C(F)(F)F)nn1-c1ncccc1Cl [Compound (I-1), 2-[1-(3-chloropyridin-2-yl)-3-trifluoromethylpyrazol-5-ylcarbonylamino]-N-isopropyl-3-methylbenzamide]
- Death rate, 5 days later, % ([4]; 0.007 ppm): 55%
- Death rate, 4 days later, % ([1]; single compound, 0.01 mg/plant, soil drench, rice, 3-instar larvae): 30%

SMILES: Cc1cc(Cl)cc(C(=O)NC(C)C)c1NC(=O)c1cc(C(F)(F)F)nn1-c1ncccc1Cl [Compound (I-2), 5-chloro-2-[1-(3-chloropyridin-2-yl)-3-trifluoromethylpyrazol-5-ylcarbonylamino]-N-isopropyl-3-methylbenzamide]
- Death rate, 3 days later, % [3]: 30%
- Death rate, 4 days later, % ([2]; 0.0016 mg/plant): 0%

SMILES: Cc1cccc(C(=O)NC(C)C)c1NC(=O)c1cc(Cl)nn1-c1ncccc1Cl [Compound (I-3), 2-[1-(3-chloropyridin-2-yl)-3-chloropyrazol-5-ylcarbonylamino]-N-isopropyl-3-methylbenzamide]
- Death rate, 4 days later, % ([2]; 0.04 mg/plant): 50%

SMILES: Cc1cc(Cl)cc(C(=O)NC(C)C)c1NC(=O)c1cc(Cl)nn1-c1ncccc1Cl [Compound (I-4), 5-chloro-2-[1-(3-chloropyridin-2-yl)-3-chloropyrazol-5-ylcarbonylamino]-N-isopropyl-3-methylbenzamide]
- Death rate, 4 days later, % [5]: 15%

SMILES: Cc1cccc(C(=O)NC(C)C)c1NC(=O)c1cc(Br)nn1-c1ncccc1Cl [Compound (I-5), 2-[3-bromo-1-(3-chloropyridin-2-yl)pyrazol-5-ylcarbonylamino]-N-isopropyl-3-methylbenzamide]
- Death rate, 5 days later, % ([1]; single compound, 0.15 mg/plant, soil drench, rice, 3-instar larvae): 5%

SMILES: Cc1cc(Cl)cc(C(=O)NC(C)C)c1NC(=O)c1cc(Br)nn1-c1ncccc1Cl [Compound (I-6), 2-[3-bromo-1-(3-chloropyridin-2-yl)-pyrazol-5-ylcarbonylamino]-5-chloro-N-isopropyl-3-methylbenzamide]
- Death rate, 5 days later, % ([4]; 0.00032 ppm): 0%

SMILES: CN1COCN(Cc2cnc(Cl)s2)C1=N[N+](=O)[O-] [Thiamethoxam, 3-(2-chloro-1,3-thiazol-5-yl-methyl)-5-methyl-1,3,5-oxa-diazinan-4-ylidene(nitro)amine]
- Death rate, 5 days later, % ([4]; 0.007 ppm): 0%
- Death rate, 4 days later, % [5]: 10%
